What was measured:
Assay type in all cases: cell-based
[1] = molecular target: T1, human PPARδ (hPPARδ) (Homo sapiens, UniProt Q03181); assay: Test for transcriptional activity of PPARδ (GAL4 chimeric transcription factor reporter assay in CHO cells); conditions: CHO cells transfected with GAL4-hPPARδ LBD and pG5luc reporter; 24 hours; luciferase activity; concentration showing 1/2 of maximum luciferase activity
T1 construct: δ: aa 139-C-end; α: aa 167-C-end; expressed in transfected cells; host or cells: CHO cells (transient transfection, FuGene)
T1 sequence (Q03181 139-441 limits assumed): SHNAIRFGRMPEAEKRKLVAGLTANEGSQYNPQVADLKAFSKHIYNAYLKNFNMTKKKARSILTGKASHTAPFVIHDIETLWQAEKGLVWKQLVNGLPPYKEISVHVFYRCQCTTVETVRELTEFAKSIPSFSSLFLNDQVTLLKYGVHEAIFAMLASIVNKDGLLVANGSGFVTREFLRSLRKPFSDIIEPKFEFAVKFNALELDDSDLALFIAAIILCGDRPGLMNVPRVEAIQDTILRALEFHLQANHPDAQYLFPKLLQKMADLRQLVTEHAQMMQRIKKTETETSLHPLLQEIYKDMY
Text: (§1) A chimeric transcription factor assay, which is commonly used to detect nuclear receptor activity, was employed to measure PPAR transcriptional activity. Specifically, two plasmids, one that expresses the fusion protein of DNA binding domain of yeast transcription factor GAL4 and a ligand binding domain of a receptor, and a reporter plasmid were transiently transfected to CHO cells. The activity of the promoter containing a recognition sequence of GAL4 coded on the reporter plasmid was used as a parameter to estimate the activity of the receptor.
(§2) Plasmid: The ligand binding domain of human PPARδ (hPPARδ) or α(hPPARα) (δ: aa 139-C-end; α: aa 167-C-end) is obtained by PCR amplification using Human Universal Quick-Clone cDNA (CLONTECH). […] Then, each obtained cDNA fragment was subcloned into pBIND vector (Promega) to construct a plasmid expressing the fusion protein with DNA binding domain of yeast transcription factor GAL4. pG5luc vector (Promega) was used as a reporter plasmid.
(§3) Cell culturing and transfection: CHO cells were cultured in 10% FBS-aMEM. With a 96-well plate (Costar), CHO cells, that were dispersed with trypsin treatment, 20000 cells per well and the two plasmids obtained by the above procedure, 25 ng per well, were transfected with FuGene Reagent (Roche) by following the instruction of the manufacture.
(§4) Measurement of the transcriptional activity: CHO cells 100 μl per well, which were transfected as above, were dispensed into the wells in which a test compound dissolved in DMSO 0.5 μl was spotted in advance. After the cells and a test compound were cultured together for 24 hours in a CO2 incubator, the luciferase activity was measured by adding luciferase substrates, PicaGene LT2.0 (Toyo ink) 100 μl per well. LUMINOUS CT-9000D (DIA-IATRON) is used to measure the activity.

[2] = molecular target: T2, hPPARγ (Homo sapiens, UniProt P37231); assay: Transcriptional activity of PPARγ (Table 9; chimeric transcription factor assay)
T2 construct: expressed in transfected cells
T2 sequence (P37231 238-503 limits assumed): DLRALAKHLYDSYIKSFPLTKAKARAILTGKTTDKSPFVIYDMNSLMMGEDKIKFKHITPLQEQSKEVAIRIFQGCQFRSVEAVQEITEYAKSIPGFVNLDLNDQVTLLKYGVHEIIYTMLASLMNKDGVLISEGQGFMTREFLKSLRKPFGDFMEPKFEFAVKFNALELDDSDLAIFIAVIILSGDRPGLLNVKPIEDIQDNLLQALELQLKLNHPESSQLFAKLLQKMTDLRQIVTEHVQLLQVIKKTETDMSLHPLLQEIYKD
Text: as §1, with “receptor. Cell culturing and transfection: CHO cells were cultured in 10% FBS-aMEM. With a 96-well plate (Costar), CHO cells, that were dispersed with trypsin treatment, 20000 cells per well and the two plasmids obtained by the above procedure, 25 ng per well, were transfected with FuGene Reagent (Roche) by following the instruction of the manufacture. […] LUMINOUS […]) is used to measure the activity.” for “receptor.”

[3] = molecular target: T3, human PPARα (hPPARα) (Homo sapiens, UniProt Q07869); assay: Test for transcriptional activity of PPARα (GAL4 chimeric transcription factor reporter assay in CHO cells); conditions: CHO cells transfected with GAL4-hPPARα LBD and pG5luc reporter; 24 hours; luciferase activity
T3 construct: δ: aa 139-C-end; α: aa 167-C-end; expressed in transfected cells; host or cells: CHO cells (transient transfection, FuGene)
T3 sequence (Q07869 167-468 limits assumed): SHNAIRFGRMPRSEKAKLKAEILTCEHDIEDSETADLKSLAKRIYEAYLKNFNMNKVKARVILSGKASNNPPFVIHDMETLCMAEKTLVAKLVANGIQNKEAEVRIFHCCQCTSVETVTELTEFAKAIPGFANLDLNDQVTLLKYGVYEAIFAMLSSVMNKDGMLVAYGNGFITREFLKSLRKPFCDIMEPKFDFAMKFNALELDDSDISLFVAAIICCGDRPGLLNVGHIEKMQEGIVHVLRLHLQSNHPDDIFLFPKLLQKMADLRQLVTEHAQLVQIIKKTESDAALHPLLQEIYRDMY
Text: as §1, §2, §3, §4

Row | EC50 [1] | EC50 [2] | EC50 [3] | SMILES
1 | 0.029 µM | 1.9 µM | > 10 µM | CNc1cccc(-c2cnc(N3CCN(CCOc4cc(CC(=O)O)ccc4Cl)[C@@H](C)C3)s2)c1 [Example 562]
2 | 0.023 µM | 4.2 µM | 2.6 µM | O=C(O)Cc1cccc(OCCN(C2CCCCC2)C2CCN(c3nc4ccc(Cl)cc4s3)C2)c1 (stereo not drawn) [Example 630]
3 | 0.02 µM | 0.8 µM | 0.54 µM | COc1ccc(CC(=O)O)cc1OCC1CCN(c2nc3ccc(Cl)cc3s2)CC1 [Example 519]
4 | 0.019 µM | 3.3 µM | 2.5 µM | C[C@@H]1CN(c2ccc(C(F)(F)F)cn2)C[C@H](C)N1CCOc1cc(CC(=O)O)ccc1Cl [Example 707]
5 | 0.0045 µM | 0.2 µM | 0.35 µM | Cc1cc(CC(=O)O)cc(CN2CCN(c3nc4ccc(C(F)(F)F)cc4s3)[C@@H](CC(C)C)C2)c1 [Example 474]
6 | 0.013 µM | 0.58 µM | 0.96 µM | C[C@H]1CN(c2nc3ccc(Cl)cc3s2)CCN1CCOc1cc(Cl)cc(CC(=O)O)c1 [Example 679]
7 | 0.049 µM | 2.2 µM | 0.57 µM | CCCCN(Cc1cccc(CC(=O)O)c1)C1CCN(c2nc3ccc(Cl)cc3s2)C1 (stereo not drawn) [Example 612, [3-[[butyl[1-(6-chlorobenzothiazole-2-yl)pyrrolidine-3-yl]amino]methyl]phenyl]acetic acid]
8 | 0.28 µM | > 10 µM | > 10 µM | C[C@@H]1CN(C2(CCOc3cc(Cl)cc(CC(=O)O)c3)CCN(c3nc4ccc(Cl)cc4s3)CC2)C[C@H](C)O1 [Example 652]
9 | 0.0044 µM | > 10 µM | > 10 µM | CCCC[C@@H]1CN(Cc2cc(C)cc(OCC(=O)O)c2)CCN1c1nc2ccc(OC(F)(F)F)cc2s1 [Example 854, [3-[(R)-3-butyl-4-(6-trifluoromethoxybenzothiazole-2-yl)-piperazine-1-ylmethyl]-5-methylphenoxy]acetic acid]
10 | 0.91 µM | > 10 µM | 1.5 µM | O=C(O)Cc1ccc(CN2CCCN(c3nc4ccc(Cl)cc4s3)CC2)s1 [Example 503]
11 | 0.041 µM | 0.76 µM | 1 µM | C[C@@H]1CN(c2nc3ccc(Cl)cc3s2)C[C@H](C)N1CCOc1ccc(Cl)c(CC(=O)O)c1 [Example 699]
12 | 0.026 µM | > 10 µM | > 10 µM | Cc1cc(CN2C[C@@H](C)N(c3nc4ccc(C(F)(F)F)cc4s3)[C@@H](C)C2)cc(OCC(=O)O)c1 [Example 590]
